According to patent publication US7070814B2, “Bioavailability / bioefficacy enhancing activity of Cuminum cyminum and extracts and fractions thereof” (Council of Scientific and Industrial Research, priority 2002, dated 2006):

Assay: Bioavailability enhancement: drug, nutraceutical or herbal product given alone or with bioenhancer (BE) to fasted rats, blood (plasma) levels 0-24 hrs by HPLC
Protocol: • 1. Bioenhancers (BEs) from Cuminum cyminum means either the aqueous, or 50% alcoholic extract or fractions No. 1 to 5. • 2. Piperine as Bioenhancer (BE) from Piper species means the molecule with characteristics as described in Example 2 of this invention. • 3.
• (i) Bioenhancer (BE) from Cuminum cyminum • Extract: 16 mg/kg body weight (Rats) • Fraction No. 1: 02–5 mg/kg body weight (rats) • Fraction No.2: 13-mg/kg body weight (Rats) • Fraction No. 3: 8 mg/kg body weight (Rats) • Fraction No. 4: 5 mg/kg body weight (Rats) • Fraction No. 5: 2.5 to 5 mg/kg body weight (Rats) • (ii) Piperine: 8 mg/kg body weight (Rats) As an example of an experiment in Rat (fasted): • Drug: Rifampicin, 40 mg/kg • BE (Cuminum cyminum): Doses as in Example No. 5 above. • BE (Cuminum cyminum)+Piperine: Doses as in Example No. 5 above.
Experimental procedure: Drug alone/or in combination with BE was administered to rats as per the following design: • Group 1: Control • Group 2: Rifampicin alone • Group 3: BE alone • Group 4: Rifampicin+BE (Cuminum cyminum) • Group 5: Rifampicin+BE (C. cyminum+piperine)
Blood from control/treated animals at predetermined intervals (0–24 hrs) (Total 14 timings). Rifampicin was extracted from the blood (plasma) using dichloromethane. The concentration of rifampicin in the samples was determined using HPLC (Model: Shimadzu 1080 BP); PDA detector; Mobile phase: phosphate buffer: acetonitile (40:60); Flow rate 1.0 ml/min. Column RP 18.
Control and BE only groups were employed to study the interference of plasma component and the bioenhancer used.
List of drugs, nutraceuticals, herbal formulations cited below as some of the example for the purpose of present invention.

Row | Compound | % Enhancement in bioavailability, Piperine + Active molecule (rat, in vivo) | also measured
1 | O=c1[nH]cc(F)c(=O)[nH]1 [5-Fluorouracil] | 435% | –
2 | Nc1nc2c(ncn2COCCO)c(=O)[nH]1 [Acyclovir] | 98% | –
3 | Cc1nnc2n1-c1ccc(Cl)cc1C(c1ccccc1)=NC2 [Alprazolam] | – | % Enhancement in bioavailability, BE from Cuminum cyminum (drug + BE from Cuminum cyminum (extract 16 mg/kg or fraction, rats) vs drug alone): 60%; % Enhancement in bioavailability, Piperine as BE (drug + piperine (8 mg/kg, rats) vs drug alone): 98%; % Enhancement in bioavailability, Piperine + Active molecule (drug + piperine + active molecule (rats) vs drug alone): 104%
4 | NCC[C@H](O)C(=O)N[C@@H]1C[C@H](N)[C@@H](O[C@H]2O[C@H](CN)[C@@H](O)[C@H](O)[C@H]2O)[C@H](O)[C@H]1O[C@H]1O[C@H](CO)[C@@H](O)[C@H](N)[C@H]1O [Amikacin] | Nil | –
5 | CCOC(=O)C1=C(COCCN)NC(C)=C(C(=O)OC)C1c1ccccc1Cl (stereo not shown) [Amlodipine] | 103% | –
6 | CC1(C)S[C@@H]2[C@H](NC(=O)[C@H](N)c3ccc(O)cc3)C(=O)N2[C@H]1C(=O)O [Amoxycillin] | 98% | –
7 | CC[C@H]1OC(=O)[C@H](C)[C@@H](O[C@H]2C[C@@](C)(OC)[C@@H](O)[C@H](C)O2)[C@H](C)[C@@H](O[C@@H]2O[C@H](C)C[C@H](N(C)C)[C@H]2O)[C@](C)(O)C[C@@H](C)CN(C)[C@H](C)[C@@H](O)[C@]1(C)O [Azithromycin] | 97% | –
8 | CN(Cc1cc(Br)cc(Br)c1N)C1CCCCC1 [Bromhexine] | 90% | –
9 | CC1=C(C(=O)O)N2C(=O)[C@@H](NC(=O)[C@H](N)c3ccc(O)cc3)[C@H]2SC1 [Cefadroxil] | – | % Enhancement in bioavailability, Piperine + BE from Cuminum cyminum (rat, in vivo): 79%
10 | CO/N=C(\C(=O)N[C@@H]1C(=O)N2C(C(=O)O)=C(CSc3nc(=O)c(O)nn3C)CS[C@H]12)c1csc(N)n1 [Cefatrioxone] | – | % Enhancement in bioavailability, Piperine + BE from Cuminum cyminum (rat, in vivo): Nil
11 | C=CC1=C(C(=O)O)N2C(=O)[C@@H](NC(=O)/C(=N\OCC(=O)O)c3csc(N)n3)[C@H]2SC1 [Cefixime] | – | % Enhancement in bioavailability, Piperine + BE from Cuminum cyminum (rat, in vivo): Nil
12 | CN/C(=N/CCSCc1nc[nH]c1C)NC#N [Cimetidine] | – | % Enhancement in bioavailability, Piperine + BE from Cuminum cyminum (rat, in vivo): 105%
13 | Cc1onc(-c2ccccc2Cl)c1C(=O)N[C@@H]1C(=O)N2[C@@H]1SC(C)(C)[C@@H]2C(=O)O [Cloxacillin] | 95% | –
14 | N[C@@H]1CON=C1O [Cycloserine] | 90% | –
15 | Nc1ccc(S(=O)(=O)c2ccc(N)cc2)cc1 [Dapsone] | 75% | –
16 | O=C(O)Cc1ccccc1Nc1c(Cl)cccc1Cl [Diclofenac] | 108% | –
17 | COc1cccc2c1C(=O)c1c(O)c3c(c(O)c1C2=O)C[C@@](O)(C(=O)CO)C[C@@H]3O[C@H]1C[C@H](N)[C@H](O)[C@H](C)O1 [Doxorubicin] | 103% | –
18 | CC[C@H]1OC(=O)[C@H](C)[C@@H](O[C@H]2C[C@@](C)(OC)[C@@H](O)[C@H](C)O2)[C@H](C)[C@@H](O[C@@H]2O[C@H](C)C[C@H](N(C)C)[C@H]2O)[C@](C)(O)C[C@@H](C)C(=O)[C@H](C)[C@@H](O)[C@]1(C)O [Erythromycin] | 95% | –
19 | CC[C@@H](CO)NCCN[C@@H](CC)CO [Ethambutol] | Nil | –
20 | CCc1cc(C(N)=S)ccn1 [Ethionamide] | 65% | –
21 | O=C(CCCN1CCC(O)(c2ccc(Cl)cc2)CC1)c1ccc(F)cc1 [Haloperidol] | Nil | –

Row | Compound | % Enhancement in bioavailability, Piperine + Active molecule (rat, in vivo) | also measured
22 | NNC(=O)c1ccncc1 [Isoniazid] | Negligible | –
23 | CC(=O)N1CCN(c2ccc(OCC3COC(Cn4ccnc4)(c4ccc(Cl)cc4Cl)O3)cc2)CC1 (stereo not shown) [Ketoconazole] | 156% | –
24 | NCCCC[C@H](N[C@@H](CCc1ccccc1)C(=O)O)C(=O)N1CCC[C@H]1C(=O)O [Lisinopril] | 98% | –
25 | CN(Cc1cnc2nc(N)nc(N)c2n1)c1ccc(C(=O)N[C@@H](CCC(=O)O)C(=O)O)cc1 [Methotrexate] | 30% | –
26 | COc1c(C)c2c(c(O)c1C/C=C(\C)CCC(=O)OCCN1CCOCC1)C(=O)OC2 [Mycophenolate Mofeit, Mycophenolate mofetil] | Nil | –
27 | CS(=O)(=O)Nc1ccc([N+](=O)[O-])cc1Oc1ccccc1 [Nimesulide] | 150% | –
28 | CCn1cc(C(=O)O)c(=O)c2cc(F)c(N3CCNCC3)cc21 [Norfloxacin] | Negligible | –
29 | CC1COc2c(N3CCN(C)CC3)c(F)cc3c(=O)c(C(=O)O)cn1c23 (stereo not shown) [O-floxacin, Ofloxacin] | 73% | –
30 | COc1ccc2[nH]c([S+]([O-])Cc3ncc(C)c(OC)c3C)nc2c1 (stereo not shown) [Omeprazole] | – | % Enhancement in bioavailability, Piperine + BE from Cuminum cyminum (rat, in vivo): Nil
31 | CN1C(C(=O)Nc2ccccn2)=C(O)c2ccccc2S1(=O)=O [Piroxicam] | 107% | –
32 | CC(C)NCC(O)COc1cccc2ccccc12 (stereo not shown) [Propranolol] | 210% | –
33 | NC(=O)c1cnccn1 [Pyrazinamide] | Nil | –
34 | CNC(=C[N+](=O)[O-])NCCSCc1ccc(CN(C)C)o1 [Ranitidine] | – | % Enhancement in bioavailability, Piperine + BE from Cuminum cyminum (rat, in vivo): 89%
35 | CO[C@H]1/C=C/O[C@@]2(C)Oc3c(C)c(O)c4c(O)c(c(/C=N/N5CCN(C)CC5)c(O)c4c3C2=O)NC(=O)/C(C)=C\C=C\[C@H](C)[C@H](O)[C@@H](C)[C@@H](O)[C@@H](C)[C@H](OC(C)=O)[C@@H]1C [Rifampicin] | 366% | –
36 | CS(=O)(=O)c1ccc(C2=C(c3ccccc3)C(=O)OC2)cc1 [Rofecoxib] | Negligible | –
37 | CC[C@H]1OC(=O)[C@H](C)[C@@H](O[C@H]2C[C@@](C)(OC)[C@@H](O)[C@H](C)O2)[C@H](C)[C@@H](O[C@@H]2O[C@H](C)C[C@H](N(C)C)[C@H]2O)[C@](C)(O)C[C@@H](C)/C(=N\OCOCCOC)[C@H](C)[C@@H](O)[C@]1(C)O [Roxythromycin] | 103% | –
38 | CC(C)(C)NCC(O)c1ccc(O)c(CO)c1 (stereo not shown) [Salbutamol] | 85% | –
39 | C=CC[C@@H]1/C=C(\C)C[C@H](C)C[C@H](OC)[C@H]2O[C@@](O)(C(=O)C(=O)N3CCCC[C@H]3C(=O)O[C@H](/C(C)=C/[C@@H]3CC[C@@H](O)[C@H](OC)C3)[C@H](C)[C@@H](O)CC1=O)[C@H](C)C[C@@H]2OC [Tacrolimus] | 117% | –
40 | Cn1c(=O)c2[nH]cnc2n(C)c1=O [Theophylline] | 75% | –
41 | Cc1cn([C@H]2C[C@H](N=[N+]=[N-])[C@@H](CO)O2)c(=O)[nH]c1=O [Zidovudine] | 415% | –
